One assay concerns the target JAK2 (Homo sapiens (Human), UniProt O60674). The assay is described as follows: Radiometric assay of enzymatic JAK2 activity by Reaction Biology Corp. In kind it is biochemical.
The next assay concerns UKE-1 cells. The assay is described as follows: UKE-1 cell viability assay (CellTiter Blue). The settings on record: UKE1, 72 h, read-out: UKE-1 cell growth inhibition IC50. In general terms: The colour change of resazurin is a common sign of viable cells or microbes.
Assay [1] has as its target T1, JAK2 KD (Homo sapiens (Human), UniProt O60674). The assay is described as follows: Transient expression of JAK2 KD in Expi293F cells, immunoblot densitometry. Type of assay: cell-based. The procedure: The construct was expressed using a CMV promoter and contained a Hiss N-terminal affinity tag followed by a TEV cleavage site. Expi293F cells (Invitrogen) were grown, maintained, and treated in shaking culture at 37° C. with 8% CO2 in Expi293 medium (Invitrogen). Recombinant JAK2 was expressed in Expi293F cells using Transporter 5 transfection reagent as described by the manufacturer (PolySciences). One hour after adding the plasmid:transfection complex, varying concentrations of JAK2 inhibitor or transcription enhancer were added. The transfection proceeded for 24 hours before harvest.
Previously, JAK2 KD has been predominantly purified from insect cells; but this process takes several weeks to generate and amplify the baculovirus to produce large enough quantities of purified protein.

The target in assay [2] is T1, JAK2 KD. Nature of the assay: Differential scanning fluorimetry (DSF) binding studies with purified JAK2 KD.
Text: To assess the suitability of purified JAK2 KD for SAR studies for drug development campaigns, three series of JAK2 inhibitors (FIG. 2A-C) were subjected to binding studies by differential scanning fluorimetry (DSF).
For the next assay, the target named is SRC (Homo sapiens (Human), UniProt P12931). The settings on record: selectivity; cited from earlier work.
Where [3] appears, read: read-out: Biochemical inhibition IC50.
Where [4] appears, read: radiometric assay, ± SD from two data sets, read-out: Biochemical inhibition IC50.

The term IC50 denotes the concentration at which inhibition is half-maximal.

Like-named read-outs stand apart in the source and are kept apart here.

T1 sequence (O60674 840-1132): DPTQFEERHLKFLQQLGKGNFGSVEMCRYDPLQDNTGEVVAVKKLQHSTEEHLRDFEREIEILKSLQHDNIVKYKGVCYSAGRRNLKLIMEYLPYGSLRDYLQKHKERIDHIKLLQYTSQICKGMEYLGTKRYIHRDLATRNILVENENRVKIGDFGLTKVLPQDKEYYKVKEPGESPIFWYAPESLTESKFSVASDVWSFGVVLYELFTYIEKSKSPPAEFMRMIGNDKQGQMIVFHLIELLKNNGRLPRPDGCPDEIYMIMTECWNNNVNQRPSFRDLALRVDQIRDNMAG
Chain of JAK2 (O60674 whole entry): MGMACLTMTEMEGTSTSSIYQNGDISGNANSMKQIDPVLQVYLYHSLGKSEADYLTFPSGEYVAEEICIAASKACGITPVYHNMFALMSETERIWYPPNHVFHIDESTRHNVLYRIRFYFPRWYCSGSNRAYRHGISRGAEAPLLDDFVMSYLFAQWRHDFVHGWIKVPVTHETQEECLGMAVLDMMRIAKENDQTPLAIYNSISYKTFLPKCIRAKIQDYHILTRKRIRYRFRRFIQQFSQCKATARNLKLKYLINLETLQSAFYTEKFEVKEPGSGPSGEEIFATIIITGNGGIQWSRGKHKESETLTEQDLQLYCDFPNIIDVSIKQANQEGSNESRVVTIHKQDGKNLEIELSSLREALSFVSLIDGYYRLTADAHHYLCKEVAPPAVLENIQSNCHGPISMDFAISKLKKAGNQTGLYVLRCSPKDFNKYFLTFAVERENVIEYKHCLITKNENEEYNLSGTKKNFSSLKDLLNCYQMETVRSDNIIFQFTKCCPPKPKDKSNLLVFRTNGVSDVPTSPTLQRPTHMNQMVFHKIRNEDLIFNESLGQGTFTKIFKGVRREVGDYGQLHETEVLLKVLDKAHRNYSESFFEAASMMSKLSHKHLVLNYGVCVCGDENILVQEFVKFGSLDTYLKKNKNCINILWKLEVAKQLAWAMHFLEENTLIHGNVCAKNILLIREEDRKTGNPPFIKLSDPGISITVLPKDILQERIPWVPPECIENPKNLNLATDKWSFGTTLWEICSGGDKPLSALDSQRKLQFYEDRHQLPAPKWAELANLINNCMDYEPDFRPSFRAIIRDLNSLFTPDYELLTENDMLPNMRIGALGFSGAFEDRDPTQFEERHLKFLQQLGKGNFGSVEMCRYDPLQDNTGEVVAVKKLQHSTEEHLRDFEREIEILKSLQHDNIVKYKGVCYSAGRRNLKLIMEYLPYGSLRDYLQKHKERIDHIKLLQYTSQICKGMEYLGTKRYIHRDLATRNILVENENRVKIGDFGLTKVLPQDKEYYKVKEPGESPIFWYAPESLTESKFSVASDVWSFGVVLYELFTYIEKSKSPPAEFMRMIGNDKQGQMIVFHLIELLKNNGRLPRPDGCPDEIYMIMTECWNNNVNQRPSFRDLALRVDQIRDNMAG
Chain of SRC (P12931 whole entry, species assumed): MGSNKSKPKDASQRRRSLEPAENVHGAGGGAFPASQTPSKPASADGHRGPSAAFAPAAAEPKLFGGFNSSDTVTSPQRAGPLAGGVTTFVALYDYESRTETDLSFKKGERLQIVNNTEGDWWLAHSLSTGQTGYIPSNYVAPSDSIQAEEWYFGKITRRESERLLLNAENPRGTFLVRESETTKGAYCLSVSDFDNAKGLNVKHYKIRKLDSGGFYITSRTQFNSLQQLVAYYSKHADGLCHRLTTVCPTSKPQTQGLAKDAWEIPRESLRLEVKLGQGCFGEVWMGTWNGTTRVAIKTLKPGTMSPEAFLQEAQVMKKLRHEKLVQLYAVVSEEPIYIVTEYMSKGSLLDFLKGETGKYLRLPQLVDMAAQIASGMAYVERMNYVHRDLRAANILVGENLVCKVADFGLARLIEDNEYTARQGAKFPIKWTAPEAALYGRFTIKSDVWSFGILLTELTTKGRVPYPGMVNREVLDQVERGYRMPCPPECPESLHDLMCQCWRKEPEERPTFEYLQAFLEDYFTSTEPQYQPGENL
Experimental for UKE-1 cells: Suspension cells were seeded at 20,000 cells per well. […] Cell viability data were analyzed using GraphPad Prism6.

Regarding `Cc1cnc(Nc2ccc(C3CCN(C)CC3)c(F)c2)nc1Nc1ccc2c(c1)N(S(=O)(=O)C(C)(C)C)CC2` [Compound 7, N^4-(1-(tert-Butylsulfonyl)indolin-6-yl)-N^2-(3-fluoro-4-(1-methylpiperidin-4-yl)phenyl)-5-methylpyrimidine-2,4-diamine], the half-maximal inhibitory concentration (IC50) at JAK2 (setting [3]) was 3.6 ± 1.1 nM; in the assay on UKE-1 cells, 210 ± 20 nM. Take `Cc1cnc(Nc2cc(F)c(C3CCN(C)CC3)c(F)c2)nc1Nc1ccc(F)c(NS(=O)(=O)C(C)(C)C)c1` [Compound 5, N-(5-((2-((3,5-Difluoro-4-(1-methylpiperidin-4-yl)phenyl)amino)-5-methylpyrimidin-4-yl)amino)-2-fluorophenyl)-2-methylpropane-2-sulfonamide]: the results for the IC50 at JAK2 (setting [4]) and with UKE-1 cells were 8.2 ± 5.7 nM and 150 ± 10 nM, respectively. With `N#CC[C@@H](C1CCCC1)n1cc(-c2nc(Nc3ccc(C4CCNCC4)cc3)nc3[nH]ccc23)cn1` [(S)-1, (S)-3-Cyclopentyl-3-(4-(2-((4-(piperidin-4-yl)phenyl)amino)-7H-pyrrolo[2,3-d]pyrimidin-4-yl)-1H-pyrazol-1-yl)propanenitrile], the IC50 at JAK2 (setting [3]) came out at 0.099 ± 0.02 nM. `N#CC[C@H](C1CCCC1)n1cc(-c2nc(Nc3ccc(C4CCNCC4)cc3)nc3[nH]ccc23)cn1` [(R)-1, (R)-3-Cyclopentyl-3-(4-(2-((4-(piperidin-4-yl)phenyl)amino)-7H-pyrrolo[2,3-d]pyrimidin-4-yl)-1H-pyrazol-1-yl)propanenitrile]: the IC50 at JAK2 was less than 0.15 nM; at JAK2 (setting [3]), 0.15 ± 0.03 nM. `N#CCCn1cc(-c2nc(Nc3ccc(C4CCNCC4)cc3)nc3[nH]ccc23)cn1` [Compound 2, 3-(4-(2-((4-(Piperidin-4-yl)phenyl)amino)-7H-pyrrolo[2,3-d]pyrimidin-4-yl)-1H-pyrazol-1-yl)propanenitrile]: the IC50 on JAK2 (setting [3]) was found to be 0.13 ± 0.048 nM; with UKE-1 cells, 4500 ± 5900 nM. In the case of `CCCC(CCC)C(=O)O` [valproic acid], on JAK2 KD [1] (HDAC inhibitor during expression alongside ruxolitinib), the “JAK2 KD expression increase over ruxolitinib alone” value was “four-fold”.

As to `C=CCCn1cc(-c2nc(Nc3ccc(C4CCNCC4)cc3)nc3[nH]ccc23)cn1` [Compound 3, 4-(1-(But-3-en-1-yl)-1H-pyrazol-4-yl)-N-(4-(piperidin-4-yl)phenyl)-7H-pyrrolo[2,3-d]pyrimidin-2-amine], the IC50 on JAK2 (setting [4]) was found to be 0.26 ± 0.04 nM; with UKE-1 cells it was 620 ± 40 nM.

Turning to `Cc1cnc(Nc2ccc(C3CCN(C)CC3)c(F)c2)nc1Nc1ccc(F)c(NS(=O)(=O)C(C)(C)C)c1` [Compound 4, N-(2-Fluoro-5-((2-((3-fluoro-4-(1-methylpiperidin-4-yl)phenyl)amino)-5-methylpyrimidin-4-yl)amino)phenyl)-2-methylpropane-2-sulfonamide], the IC50 at JAK2 (setting [4]) is 6.5 ± 3.5 nM. With `N#CCC(C1CCCC1)n1cc(-c2nc(Nc3ccc(C4CCNCC4)cc3)nc3[nH]ccc23)cn1` (racemic) [(rac)-1], the “Binding potential ΔTm” value at JAK2 KD [2] was 11.8 ± 0.05 °C. Regarding `N#CC[C@H](C1CCCC1)n1cc(-c2ncnc3[nH]ccc23)cn1` [Ruxolitinib, reference compound], the “Inhibitory activity for JAK2 over SRC” value on SRC is reported as “three orders of magnitudes higher”. As to `Cc1cnc(Nc2ccc(OCCN3CCCC3)cc2)nc1Nc1cccc(S(=O)(=O)NC(C)(C)C)c1` [Fedratinib, reference compound], the IC50 in the assay on UKE-1 cells was 660 ± 60 nM.

Regarding `CCCC(=O)O` [butyric acid], the “JAK2 KD expression increase over ruxolitinib alone” value at JAK2 KD [1] is on record as “four-fold”.

The values are drawn from patent US20240140952A1, “INHIBITORS AND DEGRADERS OF JANUS KINASE 2” (H. LEE MOFFITT CANCER CENTER AND RESEARCH INSTITUTE, INC., priority 2021, published 2024).
